Assay results taken from PMC6022977, “Specificity of Induction of Glycopeptide Antibiotic Resistance in the Producing Actinomycetes” (Antibiotics, 2018).
≈ marks a conversion by molar mass, not a printed value. Read-outs that look alike come from different tables or passages of the source. Positions of bridges follow the written chain, without caps; N, C: chain ends. Non-standard residues stand in square brackets, D forms with d. Residues, ends and D or L forms follow the SMILES beside them. *: point of attachment. Ileψ(thiazoline)Cys = CC[C@H](C)[C@H](N)C1=N[C@H](C(=O)*)CS1; dOrn = NCCC[C@@H](N)C(=O)O

Legend:
S. coelicolor ∆vanRS = assay: MIC on solid media, S. coelicolor ∆vanRS; type: cell-based, Streptomyces coelicolor; details: MS agar plates, 10^7 CFU sonicated hyphae, 28 °C, 10 days, average of three independent experiments
Protocol: (§1) MICs were measured on solid media, since the standard broth dilution method used in unicellular bacteria to determine MICs by turbidity is compromised in mycelial actinomycetes by the formation of multicellular aggregates and by the coexistence of cells in different physiological states (e.g., vegetative mycelium, aerial mycelium, and spores).
(§2) Cryovials of WCBs were thawed at room temperature and used to inoculate a VSP medium for Nonomuraea spp. and Actinoplanes spp. or YEME for Streptomyces spp. in the presence or the absence of GPAs. The strains were grown to exponential phase (approximately 72 h) at 28 °C with shaking. The mycelium was harvested by centrifugation, suspended in 0.9% (w/v) NaCl, and fragmented by sonication with a Vibracell Albra sonicator 400 W [26]. […] The plates were dried and then incubated at 28 °C. MIC values were determined as the lowest antibiotic concentrations that inhibited visible growth after 10 days of incubation.

N. gerenzanensis pST30 = assay: MIC on solid media, N. gerenzanensis pST30; type: cell-based, Nonomuraea gerenzanensis; details: N. gerenzanensis pST30 (vanRSHAX cluster from A. teichomyceticus); V0.1 agar plates, 28 °C, 10 days; average of three independent experiments
Protocol: as §1, §2

A. teichomyceticus = details: for MIC, teicoplanin-induced: Actinoplanes teichomyceticus + 10 µg/ml teicoplanin; for MIC, non-induced: Actinoplanes teichomyceticus non-induced
Protocol: as §1, §2

N. gerenzanensis = details: for MIC, non-induced: Nonomuraea gerenzanensis non-induced
Protocol: as §1, §2

[1] = test system: VanY activity in N. gerenzanensis pST30; type: cell-based, Nonomuraea gerenzanensis; details: for Effect on VanY activity (membrane extracts): N. gerenzanensis pST30 grown with subinhibitory concentrations of GPAs added at inoculum
Protocol: To determine the correlation between the antimicrobial activity of the GPAs and their ability to induce the van resistance system in actinomycetes, we followed the enzyme activities corresponding to either VanX or VanY peptidases in cells growing in liquid culture in the presence or absence of subinhibitory concentrations of GPAs (Figure 1 and Figure 2). The D,D-dipeptidase activity of VanX (Figure 1) and the D,D-carboxypeptidase activity of VanY (Figure 2) were measured by determining the amount of D-Ala released from the hydrolysis of the D-Ala-D-Ala dipeptide and of the Nε-acetyl-L-Lys-D-Ala-D-Ala tripeptide, respectively. D-Ala release was measured by using a D-amino acid oxidase coupled to a peroxidase [25, 31].
Figure 2 VanY activity in N. gerenzanensis and N. gerenzanensis pST30 grown in the absence (dotted line) or in the presence (continuous line) of subinhibitory concentrations of GPAs added at the moment of inoculum (see material and methods). VanY-specific activity is defined as the number of nanomoles of D-Ala released by the hydrolysis of Nε-acetyl-L-Lys-D-Ala-D-Ala tripeptide at 37 °C per minute per milligram of protein contained in membrane extracts. […] The values represent the averages from three independent experiments, with a standard deviation of <5%.
(§3) S. coelicolor A3(2), its ΔvanRS mutant, A. teichomyceticus ATCC 31121, N. gerenzanensis ATCC 39727, and N. gerenzanensis pST30 were grown as described above. […] Antibiotics were added to the cultures at the moment of inoculation using concentrations calculated as the half-point of MICs (see below and Table 1), except for vancomycin (10 µg/mL) in S. coelicolor A3(2), as reported by Kwun et al. [10].
Cells were harvested by centrifugation at 3600× g for 20 min at 4 °C, and then they were suspended in 2 mL of 0.9% (w/v) NaCl per gram of cells (wet weight). All of the following manipulations were conducted at 0 to 4 °C. The mycelium was fragmented by sonication with a Sonics Vibracell VCX 130. […]

[2] = test system: VanX activity in S. coelicolor; details: vancomycin 10 µg/mL
Protocol: (§4) The D,D-dipeptidase activity of VanX (Figure 1) and the D,D-carboxypeptidase activity of VanY (Figure 2) were measured by determining the amount of D-Ala released from the hydrolysis of the D-Ala-D-Ala dipeptide and of the Nε-acetyl-L-Lys-D-Ala-D-Ala tripeptide, respectively. D-Ala release was measured by using a D-amino acid oxidase coupled to a peroxidase [25, 31].
(§5) VanX-specific activity is defined as the number of nanomoles of D-Ala released by the hydrolysis of D-Ala-D-Ala dipeptide at 37 °C per minute per milligram of protein contained in cytoplasmic fractions.
as §3
Cells were harvested by centrifugation at 3600× g for 20 min at 4 °C, and then they were suspended in 2 mL of 0.9% (w/v) NaCl per gram of cells (wet weight). All of the following manipulations were conducted at 0 to 4 °C. The mycelium was fragmented by sonication with a Sonics Vibracell VCX 130. Sonication was carried out for 5 min on ice, with cycles of 30 s with an amplitude of 90% (90% of 60 Hz), with breaks of 10 s. […]

[3] = test system: VanX activity in N. gerenzanensis pST30; type: cell-based, Nonomuraea gerenzanensis; details: for Growth time within which VanX activity responds to the inducer: N. gerenzanensis pST30, subinhibitory concentrations (vancomycin 10, teicoplanin 1.75, A40926 10 µg/mL), teicoplanin to less extent; for Effect on VanX activity (cytoplasmic fraction): N. gerenzanensis pST30 grown with 10 µg/mL vancomycin, 1.75 µg/mL teicoplanin, 10 µg/mL A40926
Protocol: as §4, §5, §3
Cells were harvested by centrifugation at 3600× g for 20 min at 4 °C, and then they were suspended in 2 mL of 0.9% (w/v) NaCl per gram of cells (wet weight). All of the following manipulations were conducted at 0 to 4 °C. The mycelium was fragmented by sonication with a Sonics Vibracell VCX 130. Sonication was carried out for 5 min on ice, with cycles of 30 s with an amplitude of 90% (90% of 60 Hz), with breaks of 10 s. The samples were then centrifuged at 39,000× g for 15 min, and the supernatants (cytoplasmic fractions) were collected. An alkaline extraction of the pellets (cell debris and membrane fractions) was carried out by adapting a protocol developed previously for extracting membrane-bound proteins [25, 36]. The sedimented pellets were resuspended in ice-cold distilled water containing proteinase inhibitors (0.19 mg/mL phenylmethanesulfonyl fluoride and 0.7 µg/mL pepstatin, both purchased from Sigma-Aldrich), and then, immediately before centrifugation (28,000× g for 15 min at 4 °C), the pH was adjusted to 12 by adding an appropriate volume of 2.5 N NaOH. Immediately after centrifugation, the supernatants were neutralized to pH 7 by adding 0.5 M sodium acetate (pH 5.4). Enzymatic activities in the supernatant (cytoplasmic fractions) and in the resuspended insoluble fractions (membranes) were assayed as reported previously [36] by measuring the release of D-Ala from commercially available dipeptide (D-Ala-D-Ala, 10 mM; Sigma-Aldrich) and tripeptide (Nε-acetyl-L-Lys-D-Ala-D-Ala, 10 mM; Sigma-Aldrich).

[4] = A. teichomyceticus, V0.1 agar plates, 10^7 CFU sonicated hyphae, 28 °C, 10 days, average of three independent experiments
[5] = after 72h of growth, average of three independent experiments
[6] = after 48h of growth, average of three independent experiments
[7] = S. coelicolor, MS agar plates, 10^7 CFU sonicated hyphae, 28 °C, 10 days, average of three independent experiments
[8] = N. gerenzanensis, V0.1 agar plates, 10^7 CFU sonicated hyphae, 28 °C, 10 days, average of three independent experiments
[9] = Nonomuraea gerenzanensis + 2 µg/ml A40926, after 48h of growth, average of three independent experiments
[10] = Nonomuraea gerenzanensis + 2 µg/ml A40926, after 72h of growth, average of three independent experiments

| Molecule | Minimal inhibitory concentration (MIC) (S. coelicolor ∆vanRS) [mg/L] | Minimal inhibitory concentration (MIC) (N. gerenzanensis pST30) [mg/L] | Minimal inhibitory concentration (MIC) (A. teichomyceticus; 72 h) [mg/L] | Minimal inhibitory concentration (MIC) (S. coelicolor; 72 h) [mg/L] | Minimal inhibitory concentration (MIC) (N. gerenzanensis; 72 h) [mg/L] | Effect on VanY activity (membrane extracts) [1] | Growth time at which induced VanY activity reaches its maximum value ([1]; N. gerenzanensis pST30 induced by vancomycin) [h] | Minimal inhibitory concentration (MIC) (A. teichomyceticus; [4]) [mg/L] | MIC, teicoplanin-induced (A. teichomyceticus; [5]) | MIC, non-induced (A. teichomyceticus; [6]) | MIC, non-induced (A. teichomyceticus; [5]) | Minimal inhibitory concentration (MIC) (S. coelicolor; [7]) [mg/L] | Minimal inhibitory concentration (MIC) (N. gerenzanensis; [8]) [mg/L] | MIC, A40926-induced (N. gerenzanensis; [9]) | MIC, A40926-induced (N. gerenzanensis; [10]) | MIC, non-induced (N. gerenzanensis; [6]) | MIC, non-induced (N. gerenzanensis; [5]) | Change of level of VanX enzyme activity within the first 24 h from the induction [2] | Growth time within which VanX activity responds to the inducer [3] [h] | Effect on VanX activity (cytoplasmic fraction) [3] |
| --- | --- | --- | --- | --- | --- | --- | --- | --- | --- | --- | --- | --- | --- | --- | --- | --- | --- | --- | --- | --- |
| CC[C@H](C)[C@H](N)C1=N[C@H](C(=O)N[C@@H](CC(C)C)C(=O)N[C@H](CCC(=O)O)C(=O)N[C@H](C(=O)N[C@H]2CCCCNC(=O)[C@H](CC(N)=O)NC(=O)[C@@H](CC(=O)O)NC(=O)[C@H](Cc3cnc[nH]3)NC(=O)[C@@H](Cc3ccccc3)NC(=O)[C@H]([C@@H](C)CC)NC(=O)[C@@H](CCCN)NC2=O)[C@@H](C)CC)CS1 [Bacitracin] ({Ileψ(thiazoline)Cys}-L[dE]IK[dOrn]I[dF]H[dD]N; lactam 4-C (inferred); N-terminus assumed) | 0.9 ± 0.035 (≈ 0.633 µM) | 20 ± 1.2 (≈ 14.1 µM) | 20 ± 1.15 (≈ 14.1 µM) | 0.9 ± 0.05 (≈ 0.633 µM) | 20 ± 1.3 (≈ 14.1 µM) | – | – | – | – | – | – | – | – | – | – | – | – | – | – | – |
| CN[C@H](CC(C)C)C(=O)N[C@H]1C(=O)N[C@@H](CC(N)=O)C(=O)N[C@H]2C(=O)N[C@H]3C(=O)N[C@H](C(=O)N[C@H](C(=O)O)c4cc(O)cc(O)c4-c4cc3ccc4O)[C@H](O)c3ccc(c(Cl)c3)Oc3cc2cc(c3O[C@@H]2O[C@H](CO)[C@@H](O)[C@H](O)[C@H]2O[C@H]2C[C@](C)(N)[C@H](O)[C@H](C)O2)Oc2ccc(cc2Cl)[C@H]1O [Vancomycin] | 1.25 ± 0.03 (≈ 0.863 µM) | 20 ± 1.05 (≈ 13.8 µM) | – | – | – | significantly induced | 96 | 90 ± 4.2 (≈ 62.1 µM) | 90 ± 2.1 mg/L | 90 ± 2.5 mg/L (≈ 62.1 µM) | 90 ± 1.6 mg/L (≈ 62.1 µM) | >100 | 20 ± 1.6 (≈ 13.8 µM) | 32 ± 0.9 mg/L | 32 ± 0.8 mg/L | 20 ± 0.8 mg/L (≈ 13.8 µM) | 20 ± 0.5 mg/L (≈ 13.8 µM) | doubled | ≤ 48 | induced |
| Ramoplanin | 0.9 ± 0.025 | 20 ± 1.1 | – | – | – | – | – | 20 ± 1 | – | – | – | 0.9 ± 0.045 | 20 ± 1.2 | – | – | – | – | – | – | – |
| Teicoplanin | 1.5 ± 0.02 | 2.75 ± 0.15 | – | – | – | comparable to the basal level | – | 20 ± 1.5 | 20±0.85 g/ml | 20±1 g/ml | 20±0.9 g/ml | 1.5 ± 0.025 | 0.9 ± 0.01 | 1.2±0.03 g/ml | 1.2±0.02 g/ml | 0.9±0.01 g/ml | 0.9±0.015 g/ml | – | ≤ 48 | induced |
